Measurements taken from patent US12649751B2 (Arcus Biosciences, Inc., priority 2022, dated 2026).

Molecular target: HPK1 (Homo sapiens, UniProt Q92918)
Assay: HPK1 Biochemical Assay (ADP-Glo luminescence; low ATP 10 μM or high ATP 200 μM)
Conditions: 2 nM HPK1, 10 μM ATP; read-out: Biochemical Potency (low ATP)

HPK1, sequence (Q92918 whole entry, species assumed): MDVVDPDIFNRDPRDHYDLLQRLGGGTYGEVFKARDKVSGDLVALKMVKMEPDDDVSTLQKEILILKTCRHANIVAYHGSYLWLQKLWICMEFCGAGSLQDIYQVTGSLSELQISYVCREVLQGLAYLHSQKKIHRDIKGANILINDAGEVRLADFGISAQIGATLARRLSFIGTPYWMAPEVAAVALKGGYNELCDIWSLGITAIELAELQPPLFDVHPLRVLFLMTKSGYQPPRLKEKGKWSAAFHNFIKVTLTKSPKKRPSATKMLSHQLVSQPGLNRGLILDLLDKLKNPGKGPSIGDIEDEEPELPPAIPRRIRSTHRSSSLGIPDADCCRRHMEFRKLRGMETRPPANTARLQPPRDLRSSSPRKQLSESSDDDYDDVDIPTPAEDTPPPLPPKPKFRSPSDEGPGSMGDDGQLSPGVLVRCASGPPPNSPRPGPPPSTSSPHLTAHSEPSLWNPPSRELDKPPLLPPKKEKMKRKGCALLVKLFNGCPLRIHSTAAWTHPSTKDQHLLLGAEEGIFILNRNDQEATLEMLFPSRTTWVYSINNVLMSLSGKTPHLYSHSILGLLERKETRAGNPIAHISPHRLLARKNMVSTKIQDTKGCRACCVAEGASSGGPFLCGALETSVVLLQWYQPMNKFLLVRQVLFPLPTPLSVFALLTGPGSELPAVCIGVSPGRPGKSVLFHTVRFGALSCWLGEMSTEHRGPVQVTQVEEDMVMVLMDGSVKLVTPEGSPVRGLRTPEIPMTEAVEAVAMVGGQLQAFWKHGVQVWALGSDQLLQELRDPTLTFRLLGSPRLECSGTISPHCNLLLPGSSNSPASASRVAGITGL

| Structure (SMILES) | IC50 |
| --- | --- |
| C[C@@H]1CCC(=O)N1c1nc2cc(Nc3ccc(C4CCOCC4)c(CN4CCCC4)n3)ncc2s1 [Example 207, (5R)-5-Methyl-1-(6-{[5-(oxan-4-yl)-6-[(pyrrolidin-1-yl)methyl]pyridin-2-yl]amino}-[1,3]thiazolo[5,4-c]pyridin-2-yl)pyrrolidin-2-one] | 0.1 to 1 µM |
| Cc1cccnc1-c1nc2cc(Nc3ccc(C4CCOCC4)c(CN[C@@H]4CCOC4)n3)ncc2s1 [Example 215, N-[2-(3-Methylpyridin-2-yl)-[1,3]thiazolo[5,4-c]pyridin-6-yl]-5-(oxan-4-yl)-6-({[(3R)-oxolan-3-yl]amino}methyl)pyridin-2-amine] | < 0.1 µM |
| FC1(F)CCN(Cc2nc(Nc3cc4nc(-c5ccncc5)sc4cn3)ccc2C2CCOCC2)C1 [Example 218, 6-[(3,3-Difluoropyrrolidin-1-yl)methyl]-5-(oxan-4-yl)-N-[2-(pyridin-4-yl)-[1,3]thiazolo[5,4-c]pyridin-6-yl]pyridin-2-amine] | < 0.1 µM |
| c1cc(-c2nc3cc(Nc4ccc(C5CCOCC5)c(CN5CCOCC5)n4)ncc3s2)ccn1 [Example 219, 6-[(Morpholin-4-yl)methyl]-5-(oxan-4-yl)-N-[2-(pyridin-4-yl)-[1,3]thiazolo[5,4-c]pyridin-6-yl]pyridin-2-amine] | < 0.1 µM |
| Cc1ccc(-c2nc3cc(Nc4ccc(C5CCOCC5)c(CN5CCCC5)n4)ncc3s2)cn1 [Example 222, N-[2-(6-Methylpyridin-3-yl)-[1,3]thiazolo[5,4-c]291yridine-6-yl]-5-(oxan-4-yl)-6-[(291yridine291ne-1-yl)methyl]291yridine-2-amine] | < 0.1 µM |
| Fc1ccc(-c2nc3cc(Nc4ccc(C5CCOCC5)c(CN5CCCC5)n4)ncc3s2)cc1 [Example 223] | < 0.1 µM |
| Cc1cccnc1-c1nc2cc(Nc3ccc(C(C)C)c(CN4CCCC4)n3)ncc2s1 [Example 226, N-[2-(3-Methylpyridin-2-yl)-[1,3]thiazolo[5,4-c]pyridin-6-yl]-5-(propan-2-yl)-6-[(pyrrolidin-1-yl)methyl]pyridin-2-amine] | < 0.1 µM |
| CC(C)c1ccc(Nc2cc3nc(-n4cccn4)sc3cn2)nc1CN1CCCC1 [Example 228, 5-(Propan-2-yl)-N-[2-(1H-pyrazol-1-yl)-[1,3]thiazolo[5,4-c]pyridin-6-yl]-6-[(pyrrolidin-1-yl)methyl]pyridin-2-amine] | < 0.1 µM |
| C[C@@H]1CCCN1c1nc2cc(Nc3ccc(C4CCOCC4)c(CN4CCCC4)n3)ncc2s1 [Example 229, N-{2-[(2R)-2-Methylpyrrolidin-1-yl]-[1,3]thiazolo[5,4-c]pyridin-6-yl}-5-(oxan-4-yl)-6-[(pyrrolidin-1-yl)methyl]pyridin-2-amine] | 0.1 to 1 µM |
| O[C@@H]1CCN(c2nc3cc(Nc4ccc(C5CCOCC5)c(CN5CCCC5)n4)ncc3s2)C1 [Example 234, (3R)-1-(6-{[5-(Oxan-4-yl)-6-[(pyrrolidin-1-yl)methyl]pyridin-2-yl]amino}-[1,3]thiazolo[5,4-c]pyridin-2-yl)pyrrolidin-3-ol] | 0.1 to 1 µM |
| C[C@H]1CCCCN1c1nc2cc(Nc3ccc(C4CCOCC4)c(CN4CCCC4)n3)ncc2s1 [Example 236, N-{2-[(2S)-2-Methylpiperidin-1-yl]-[1,3]thiazolo[5,4-c]pyridin-6-yl}-5-(oxan-4-yl)-6-[(pyrrolidin-1-yl)methyl]pyridin-2-amine] | < 0.1 µM |
| Cc1cccnc1-c1nc2cc(Nc3nccc(N4C[C@@H]5C[C@H]4CN5)n3)ncc2s1 [Example 240, 4-[(1S,4S)-2,5-Diazabicyclo[2.2.1]heptan-2-yl]-N-[2-(3-methylpyridin-2-yl)-[1,3]thiazolo[5,4-c]pyridin-6-yl]pyrimidin-2-amine] | 0.1 to 1 µM |
| c1cc(-c2nc3cc(Nc4nccc(N5C[C@@H]6C[C@H]5CN6)n4)ncc3s2)ccn1 [Example 241, 4-[(1S,4S)-2,5-Diazabicyclo[2.2.1]heptan-2-yl]-N-[2-(pyridin-4-yl)-[1,3]thiazolo[5,4-c]pyridin-6-yl]pyrimidin-2-amine] | < 0.1 µM |
| Cc1cccnc1-c1nc2cc(Nc3ccc(C4CCOCC4)c(N4C[C@@H]5C[C@H]4CN5)n3)ncc2s1 [Example 246, 6-[(1S,4S)-2,5-Diazabicyclo[2.2.1]heptan-2-yl]-N-[2-(3-methylpyridin-2-yl)-[1,3]thiazolo[5,4-c]pyridin-6-yl]-5-(oxan-4-yl)pyridin-2-amine] | < 0.1 µM |
| Cc1cccnc1-c1nc2cc(Nc3cc(C4CCOCC4)nc(N4C[C@@H]5C[C@H]4CN5)n3)ncc2s1 [Example 250, 2-[(1S,4S)-2,5-Diazabicyclo[2.2.1]heptan-2-yl]-N-[2-(3-methylpyridin-2-yl)-[1,3]thiazolo[5,4-c]pyridin-6-yl]-6-(oxan-4-yl)pyrimidin-4-amine] | < 0.1 µM |
| Cc1cccnc1-c1nc2cc(Nc3ccc(C4CCOCC4)c(NCc4nccn4C)n3)ncc2s1 [Example 251, N2-[(1-Methyl-1H-imidazol-2-yl)methyl]-N6-[2-(3-methylpyridin-2-yl)-[1,3]thiazolo[5,4-c]pyridin-6-yl]-3-(oxan-4-yl)pyridine-2,6-diamine] | < 0.1 µM |

Second part, the compound after the results:

| IC50 | Structure (SMILES) |
| --- | --- |
| < 0.1 µM | C[C@H]1CCC(=O)N1c1nc2cc(Nc3ccc(C4CCOCC4)c(CN4CCCC4)n3)ncc2s1 [Example 208, (5S)-5-Methyl-1-(6-{[5-(oxan-4-yl)-6-[(pyrrolidin-1-yl)methyl]pyridin-2-yl]amino}-[1,3]thiazolo[5,4-c]pyridin-2-yl)pyrrolidin-2-one] |
| 0.1 to 1 µM | c1cc(C2CCOCC2)c(CN2CCCC2)nc1Nc1cc2nc(N3C[C@@H]4C[C@H]3CO4)sc2cn1 [Example 211] |
| < 0.1 µM | Cc1cccnc1-c1nc2cc(Nc3ccc(C4CCOCC4)c(CN4CC[C@@H](F)C4)n3)ncc2s1 [Example 213, 6-{[(3R)-3-Fluoropyrrolidin-1-yl]methyl}-N-[2-(3-methylpyridin-2-yl)-[1,3]thiazolo[5,4-c]pyridin-6-yl]-5-(oxan-4-yl)pyridin-2-amine] |
| < 0.1 µM | C[C@H]1CCCN1c1nc2cc(Nc3ccc(C4CCOCC4)c(CN4CCCC4)n3)ncc2s1 [Example 230, N-{2-[(2S)-2-Methylpyrrolidin-1-yl]-[1,3]thiazolo[5,4-c]pyridin-6-yl}-5-(oxan-4-yl)-6-[(pyrrolidin-1-yl)methyl]pyridin-2-amine] |
| 0.1 to 1 µM | c1cc(C2CCOCC2)c(CN2CCCC2)nc1Nc1cc2nc(N3CCCC3)sc2cn1 [Example 231, 5-(Oxan-4-yl)-N-[2-(pyrrolidin-1-yl)-[1,3]thiazolo[5,4-c]pyridin-6-yl]-6-[(pyrrolidin-1-yl)methyl]pyridin-2-amine] |
| < 0.1 µM | c1cc(C2CCOCC2)c(CN2CCCC2)nc1Nc1cc2nc(N3CCCCC3)sc2cn1 [Example 232, 5-(Oxan-4-yl)-N-[2-(piperidin-1-yl)-[1,3]thiazolo[5,4-c]pyridin-6-yl]-6-[(pyrrolidin-1-yl)methyl]pyridin-2-amine] |
| 0.1 to 1 µM | O[C@H]1CCN(c2nc3cc(Nc4ccc(C5CCOCC5)c(CN5CCCC5)n4)ncc3s2)C1 [Example 233, (3S)-1-(6-{[5-(Oxan-4-yl)-6-[(pyrrolidin-1-yl)methyl]pyridin-2-yl]amino}-[1,3]thiazolo[5,4-c]pyridin-2-yl)pyrrolidin-3-ol] |
| < 0.1 µM | c1cc(C2CCOCC2)c(CN2CCCC2)nc1Nc1cc2nc(N3C4COCC3C4)sc2cn1 [Example 237, N-(2-{3-Oxa-6-azabicyclo[3.1.1]heptan-6-yl}-[1,3]thiazolo[5,4-c]pyridin-6-yl)-5-(oxan-4-yl)-6-[(pyrrolidin-1-yl)methyl]pyridin-2-amine] |
| 0.1 to 1 µM | c1cc(C2CCOCC2)c(CN2CCCC2)nc1Nc1cc2nc(N3C[C@H]4C[C@@H]3CO4)sc2cn1 [Example 238, N-{2-[(1R,4R)-2-Oxa-5-azabicyclo[2.2.1]heptan-5-yl]-[1,3]thiazolo[5,4-c]pyridin-6-yl}-5-(oxan-4-yl)-6-[(pyrrolidin-1-yl)methyl]pyridin-2-amine] |
| < 0.1 µM | Cc1nccn1-c1nc2cc(Nc3ccc(C4CCOCC4)c(CN4CCCC4)n3)ncc2s1 [Example 239, N-[2-(2-Methyl-1H-imidazol-1-yl)-[1,3]thiazolo[5,4-c]pyridin-6-yl]-5-(oxan-4-yl)-6-[(pyrrolidin-1-yl)methyl]pyridin-2-amine] |
| 0.1 to 1 µM | Cc1cccnc1-c1nc2cc(Nc3nccc(N4C[C@@H](N)C[C@H]4CO)n3)ncc2s1 [Example 242, [(2S,4S)-4-amino-1-(2-{[2-(3-Methylpyridin-2-yl)-[1,3]thiazolo[5,4-c]pyridin-6-yl]amino}pyrimidin-4-yl)pyrrolidin-2-yl]methanol] |
| 0.1 to 1 µM | CN(C)C(=O)c1cccc(-c2nc3cc(Nc4nccc(N5C[C@@H]6C[C@H]5CN6C)n4)ncc3s2)c1 [Example 243, N,N-Dimethyl-3-[6-({4-[(1S,4S)-5-methyl-2,5-diazabicyclo[2.2.1]heptan-2-yl]pyrimidin-2-yl}amino)-[1,3]thiazolo[5,4-c]pyridin-2-yl]benzamide] |
| 0.1 to 1 µM | CN1C[C@@H]2C[C@H]1CN2c1ccnc(Nc2cc3nc(-c4cccc(S(C)(=O)=O)c4)sc3cn2)n1 [Example 244, N-[2-(3-Methanesulfonylphenyl)-[1,3]thiazolo[5,4-c]pyridin-6-yl]-4-[(1S,4S)-5-methyl-2,5-diazabicyclo[2.2.1]heptan-2-yl]pyrimidin-2-amine] |
| 0.1 to 1 µM | CN1C[C@@H]2C[C@H]1CN2c1ccnc(Nc2cc3nc(-c4cccc(C(=O)N5CCCC5)c4)sc3cn2)n1 [Example 245, 4-[(1S,4S)-5-Methyl-2,5-diazabicyclo[2.2.1]heptan-2-yl]-N-{2-[3-(pyrrolidine-1-carbonyl)phenyl]-[1,3]thiazolo[5,4-c]pyridin-6-yl}pyrimidin-2-amine] |
| < 0.1 µM | Cc1cccnc1-c1nc2cc(Nc3ccc(C4CCOCC4)c(N4C[C@@H]5C[C@H]4CN5C)n3)ncc2s1 [Example 247, 6-[(1S,4S)-5-Methyl-2,5-diazabicyclo[2.2.1]heptan-2-yl]-N-[2-(3-methylpyridin-2-yl)-[1,3]thiazolo[5,4-c]pyridin-6-yl]-5-(oxan-4-yl)pyridin-2-amine] |
